For one experiment, the system named is male ddC treated rats. The experiment is described as follows: Dideoxycytidine (ddC) model of neuropathic pain, allodynia by von Frey hairs. It is filed as in vivo, rat. Conditions: for % Allodynia Reversal: 15 min post dose / % Allodynia Reversal: 30 min post dose / % Allodynia Reversal: 60 min post dose / % Allodynia Reversal: 120 min post dose: mean ± SEM. How it is done:
The ddC Model in the rat is a relatively new model of neuropathic pain discovered from clinical treatment of the AIDS virus. […] The experimental animal model in the rat for neuropathic pain by ddC injection manifests symptoms of human patients with causalgia. It is considered predictive of clinical activity against neuropathic pain (Joseph et al, 2004). Compound N-(2,3-dichlorobenzyl)-4,5-dihydro-1H-imidazol-2-amine was tested in this ddC model of allodynic pain. The compound was administered intraperitoneally to male ddC treated rats.
The animals are injected intraperitoneally (IP) with 25 mg/kg dideoxycytidine (ddC) using a sterile 30 gauge needle. Approximately 3 weeks after the ddC injection a painful neuropathy develops causing sensitivity to light touch on the animals' extremities. This neuropathy can last for 2-3 months. The animals show no spontaneous pain, only a heightened response to mechanical stimuli (von Frey hair stimulation). The allodynia is quantitated in the animals receiving ddC injections by stimulation with a series of 8 Von Frey hairs on the mid planter area of the hind paws in the up-down manner described by Dixon (Dixon, 1980).
Male Sprague-Dawley rats (Charles River, Wilmington, Mass.) weighing approximately 150-300 grams were used for these studies. All experimental animals received N-(2,3-dichlorobenzyl)-4,5-dihydro-1H-imidazol-2-amine or vehicle in a single acute IP dose. In all studies, baseline measurements were taken prior to drug administration and then at 15, 30, 60 and 120 minutes post acute IP dosing (vehicle or N-(2,3-dichlorobenzyl)-4,5-dihydro-1H-imidazol-2-amine). The % allodynia reversal is calculated as: [(Postdrug threshold—Predrug threshold)/(15-Predrug threshold)]×100.
N-(2,3-dichlorobenzyl)-4,5-dihydro-1H-imidazol-2-amine was dissolved in 42% DMSO (dimethyl sulfoxide; Sigma, St. Louis, Mo.) at a concentration of 3 mg/ml. This stock solution was kept frozen at −20° C., was thawed on the day of the study and diluted in dd-H2O to concentrations ranging from 0.01-0.1 mg/ml for IP dosing (dosing volume=1 ml/kg). The vehicle is dd-H2O for these studies.
Data were compiled and analyzed using Microsoft Excel and/or Kaleidagraph. Data are expressed as mean± standard error of the mean. Comparisons between drug treated and vehicle groups were made using a two-tailed, 2-sample, unpaired t-test. Comparisons between baselines (pre-drug) and post-drug time points were made using a two-tailed, 2-sample, paired t-test.

A further experiment deals with Chung model rats. The experiment is described as follows: Chung model of chronic pain (spinal nerve ligation), tactile allodynia by von Frey hairs. It is filed as in vivo, rat. Conditions: single oral dose, FIG. 1. How it is done: Various concentrations of N-(2,3-dichlorobenzyl)-4,5-dihydro-1H-imidazol-2-amine were administered orally to Chung model rats. A model in accordance with Kim and Chung 1992, Pain […], pp 355-363 (Chung model), for chronic pain (in particular peripheral neuropathy) involves the surgical ligation of the L5 (and optionally the L6) spinal nerves on one side in experimental animals. Rats recovering from the surgery gain weight and display a level of general activity similar to that of normal rats. However, these rats develop abnormalities of the foot, wherein the hindpaw is moderately everted and the toes are held together. More importantly, the hindpaw on the side affected by the surgery appears to become sensitive to pain from low-threshold mechanical stimuli, such as that producing a faint sensation of touch in a human, within about 1 week following surgery. […]
Tactile allodynia is measured prior to and 30 minutes after drug administration using von Frey hairs that are a series of fine hairs with incremental differences in stiffness. […] The applied force has been calculated to range from 0.41 to 15.1 grams. […] The 50% paw withdrawal threshold is determined using the method of Dixon, W. J., Ann. […] The post-drug threshold is compared to the pre-drug threshold and the percent reversal of tactile sensitivity is calculated based on a normal threshold of 15.1 grams.

As to `Clc1cccc(CNC2=NCCN2)c1Cl` [N-(2,3-dichlorobenzyl)-4,5-dihydro-1H-imidazol-2-amine], in the experiment on male ddC treated rats (0.01 mg/kg IP, n = 6), the “% Allodynia Reversal: 15 min post dose” value stood at 1.8 ± 1.6%, the “% Allodynia Reversal: 30 min post dose” value is reported as 3.0 ± 1.7%, the “% Allodynia Reversal: 60 min post dose” value is given as 1.5 ± 2.0% and the “% Allodynia Reversal: 120 min post dose” value came out at 0.1 ± 1.3%. In the experiment with male ddC treated rats (0.03 mg/kg IP, n = 6), the “% Allodynia Reversal: 15 min post dose” value stood at 34 ± 3.9 %, the “% Allodynia Reversal: 30 min post dose” value amounted to 67%, the “% Allodynia Reversal: 60 min post dose” value is 20 ± 3.7 % and the “% Allodynia Reversal: 120 min post dose” value was determined as 2.0 ± 2.6%. For the same compound, the “% Allodynia Reversal: 30 min post dose” value in the experiment on male ddC treated rats (0.03 mg/kg IP, n = 6, listed as 200762) came out at 67 ± 9.0 %. Further, in the experiment with male ddC treated rats (0.1 mg/kg IP, n = 6), the “% Allodynia Reversal: 15 min post dose” value is listed as 58 ± 9.1 %, the “% Allodynia Reversal: 30 min post dose” value was 86%, the “% Allodynia Reversal: 60 min post dose” value worked out at 34 ± 2.5 % and the “% Allodynia Reversal: 120 min post dose” value is given as 0.9 ± 1.2%. Also, the “% Allodynia Reversal: 30 min post dose” value in the experiment on male ddC treated rats (0.1 mg/kg IP, n = 6, listed as 200762) is reported as 86 ± 6.3 %. In the experiment on male ddC treated rats (IP, male rats), the “Minimal statistically significant efficacious dose” value is given as 0.03 mg/kg and the No-effect dose is on record as 0.01 mg/kg. Also, in the experiment with Chung model rats, the “Time of decrease of allodynia reversal to baseline” value is “about 120 minutes” and the “Time of peak percent allodynia reversal” value was 30 min.

These data come from patent publication US9849113B2, “Methods of treating α adrenergic mediated conditions” (Allergan, Inc., priority 2008, dated 2017).
